Ends that are not written are not given here.
Key:
cancer cells = conditions: in the presence of 2-phenylethynesulfonamide; cited from earlier work
Description: It was recently reported that VER155008 could bind to the ...

[1] = tested on: Hsp70 / Hsp70 promoter in BT20 cells; assay: Hsp70 expression (western blotting) and Hsp70 promoter activation (reporter assay, LV200 single-cell imaging); assay type: cell-based, human
Method: Western blotting was carried out as described previously. Briefly, protein extracts were prepared from cells lysed with reporter lysis buffer (Promega, Madison, WI, USA), separated by SDS-PAGE and transferred to nitrocellulose filters using the iBlot system (Invitrogen, Carlsbad, CA, USA) according to the manufacturer’s protocol. Quenched membranes were probed with antibodies and analyzed using an enhanced reagent of Chemi-Lumi One Super (Nacalai Tesque) with a LAS-3000 LuminoImage analyzer (Fujifilm, Tokyo, Japan). Densitometric analysis was performed by Multi Gauge software V3.0 (Fujifilm) using the bands obtained from western blotting, in which actin as the loading control was used for normalizing of each bands.
A reporter assay was carried out as described previously. […] The relative activity of firefly luciferase to Renilla luciferase activity was determined in triplicate (means ± SD) using the Dual-Glo Luciferase Assay System (Promega).
Stably transfected BT20 cells with pHsp70Pro-Luc were prepared after transient transfection with Lipofectamine LTX according to the manufacturer’s protocol in a selective medium containing 200 μg/ml hygromycine B (Nacalai Tesque). Luminescence images at the single-cell level were obtained using the LV200 luminescence imaging system (Olympus) as described previously. […]

BT20 cells = assay: Cell viability assay (WST-8); assay type: cell-based, human
Method: (§1) Cell viability was determined by WST-8 assay as described previously. Briefly, cells were seeded onto 96-well plates at 2000–3000 cells/well overnight. After incubating with the test peptides, the cell viability assay was carried out using Living Cell Count Reagent SF (Nacalai Tesque) according to the manufacturer’s protocol. Absorbance was measured at 450 nm using a 96-well microplate reader (GE Healthcare Bioscience, Piscataway, NJ).

BT474 cells = assay: Cell viability assay (WST-8); assay type: cell-based, human; conditions: 24 h, mean of three independent observations each performed in triplicate, read-out: IC50 of Antp-TPR
Method: as §1

MDA-MB-231 cells = assay: Cell viability assay (WST-8); assay type: cell-based, human; conditions: 24 h
Method: as §1

MDA-MB-361 cells = assay: Cell viability assay (WST-8); assay type: cell-based, human; conditions: 24 h, mean of three independent observations each performed in triplicate, read-out: IC50 of Antp-TPR
Method: as §1

[2] = tested on: normal mammary epithelial cells (MCF-10A); assay: Cell viability assay (WST-8); assay type: cell-based, human; conditions: 24 h, R11-Hsp70 10 μM where present, compared with cancer cell lines
Method: as §1

[3] = tested on: MDA-MB-231, BT20, BT474, and MDA-MB-361 cell lines; assay: Cell viability assay (WST-8), summary over four breast cancer cell lines; assay type: cell-based, human; conditions: MDA-MB-231, BT20, BT474, MDA-MB-361; summary of Table 1; read-out: IC50 values of Antp-TPR alone, range over four cell lines
Method: as §1

[4] = tested on: BT20, MDA-MB-231, or MCF-10A cells; assay: Cellular uptake by flow cytometry; assay type: cell-based, human; conditions: BT20, MDA-MB-231, MCF-10A, Antp-TPR-TAMRA 10 μM, R11-Hsp70 or R11-Hsp70 scramble 10 μM, 30 min
Method: Flow cytometry assay was performed as described previously. […] The cell pellets were resuspended, and then flow cytometry analysis was performed by FACSCalibur (BD Bioscience, San Jose, CA, USA). Data were analyzed using CellQuest Software (BD Bioscience). Annexin V and PI staining was performed using Annexin V-Fluorescein Staining Kit (Wako Chemicals, Osaka, Japan) by multiparametric flow cytometry assay as described previously.

NS(=O)(=O)C#Cc1ccccc1 [2-phenylethynesulfonamide]
effect on the cytotoxic activity of 17-AAG (cancer cells): the cytotoxic activity of 17-AAG was increased

C=CCNC1=C2C[C@@H](C)C[C@H](OC)[C@H](O)[C@@H](C)/C=C(\C)[C@H](OC(N)=O)[C@@H](OC)/C=C\C=C(/C)C(=O)NC(=CC1=O)C2=O [17-AAG, 17-allylamino-demethoxygeldanamycin]
activation of the Hsp70 promoter ([1]; BT20 cells with pHsp70Pro-Luc, Antp-TPR 20 μM, R11-Hsp70 10 μM, 17-AAG 0.5 μM, luminometer 18 h and LV200 single-cell imaging): induced activation at the single-cell level
up-regulation of Hsp70 and the promoter activity of this protein ([1]; BT20 cells, 0.5 μM 17-AAG, 6 h or 18 h western blotting, promoter assay 18 h): induced both

N#Cc1ccc(COC[C@H]2O[C@@H](n3c(NCc4ccc(Cl)c(Cl)c4)nc4c(N)ncnc43)[C@H](O)[C@@H]2O)cc1 [VER155008, reference compound]
effect on the cytotoxic activity of 17-AAG (BT20 cells; 5 μM VER155008, WST-8): did not have any synergetic effect on the cytotoxic activity of 17-AAG
effect on the cytotoxic activity of Antp-TPR (BT20 cells; 5 μM VER155008, WST-8): cytotoxic activity of Antp-TPR toward cancer cells was increased

RQIKIWFQNRRMKWKKKAYARIGNSYFK [Antp-TPR]
IC50 (BT20 cells; 24 h, WST-8, mean of three independent observations each performed in triplicate, read-out: IC50 of Antp-TPR): 26.1 ± 3 µM
IC50 (BT474 cells): 34.1 ± 2.7 µM
IC50 (MDA-MB-231 cells; WST-8, mean of three independent observations each performed in triplicate, read-out: IC50 of Antp-TPR): 31.2 ± 3 µM
IC50 (MDA-MB-361 cells): 33.8 ± 2.6 µM
cytotoxic activity toward normal mammary epithelial cells [2]: less than that of these peptides against cancer cell lines
IC50 [3]: 26 to 34 µM

RRRRRRRRRRRGGGTPTYRASCFYHYK [R11-Hsp70scramble]
effect on the cytotoxic activity of Antp-TPR (BT20 cells; R11-Hsp70scramble 10 μM, 24 h): no effective increase in the cytotoxic activity of Antp-TPR
effect on the cytotoxic activity of Antp-TPR (MDA-MB-231 cells; R11-Hsp70scramble 10 μM): no effective increase in the cytotoxic activity of Antp-TPR

RRRRRRRRRRRGGGYCAYYSPRHKTTF [R11-Hsp70]
effect on the cytotoxic activity of 17-AAG (BT20 cells; R11-Hsp70 10 μM, 24 h): did not affect the cytotoxic activity of 17-AAG
enhancement for cellular uptake of Antp-TPR [4]: higher than that of Antp-TPR by R11-Hsp70 scramble peptide
